Results taken from US11732007B2, “Therapeutic compounds and methods” (The Regents of the University of California, priority 2020, dated 2023).

Assays:
[1] = Preliminary pharmacokinetic study in mice; assay type: in vivo, Balb-C mice
Method: (§1) Compound 25 was administered i.p. (30 mg/kg) to 5 Balb-C mice. Retrorbital bleeding was used to collect blood samples at times 30 min, 1 h, 2 h, 4 h, 8 h, and 24 h and the samples analyzed for compound 25 plasma concentration via extraction followed by LC/MS and compared to a standard calibration curve prepared with purified agent. Compound 25 was soluble in 10% DMSO, 40% PEG400, and 10% (2-hydroxypropyl)-Beta-cyclodextrin in PBS. Mice weight varied between 22 g and 26 g, each receiving approximately 200 μL (weight adjusted to administer 30 mg/Kg of compound 25) of formulated agent. The experiments were conducted at the University of California San Diego in vivo pharmacology core facility, according to a UCSD Institutional Animal Care and Use Committee (IACUC) approved protocol.

MMP-14 = biological target: T1, MMP-14 (Homo sapiens, UniProt P50281); assay: SensoLyte 520 fluorimetric selectivity assay, MMP-14; assay type: biochemical; conditions: agents tested at 25 nM or at 4 nM
T1 construct: purchased AnaSpec AS-72068
Method: (§2) FIG. 2. […] For each indicated enzyme, agents were tested at 25 nM or at 4 nM and percent inhibition was measured using the catalytic domains of the respective enzyme and the SensoLyte® 520 Fluorimetric Assay Kit (Anaspec).
(§3) Enzymatic assays to profile the inhibitory effects of all the compounds on hMMP-12, and against a panel of 5 closely related MMPs (MMP-1, MMP-3, MMP-9, MMP-13, and MMP-14) were performed using the SensoLyte® 520 Fluorimetric Assay Kit (AnaSpec) for each MMPs. Assay kit for MMP-12 Cat. #AS-71157, MMP-1 Cat. #AS-71150, MMP-3 Cat. #AS-71152, MMP-9 Cat. #AS-71155, MMP-13 Cat. #AS-71156, and MMP-14 Cat. #AS-72025. The assay was performed according to their protocols. Briefly, 10 ng of each MMPs were incubated on a black flat-bottom 96-well plate (Cat. #9502867) at RT for 15 minutes in absence or in presence of different concentration of each compound in a total volume of 50 μL. After 15 minutes, 50 μL of each substrate solution were added. The reagents were mixed together by shaking the plate gently for 30 sec. Immediately after the fluorescence was measured using the VICTOR X5 microplate reader (PerkinElmer) every 3 min for 60 min. All the measurement were performed in duplicates. The IC50 values were calculated from dose-response curves using GraphPad Prism 7.

MMP-9 = biological target: T2, MMP-9 (Homo sapiens, UniProt P14780); assay: SensoLyte 520 fluorimetric selectivity assay, MMP-9; assay type: biochemical; conditions: agents tested at 25 nM or at 4 nM
T2 construct: purchased AnaSpec AS-55576-1
T2 sequence (P14780 107-444 limits assumed): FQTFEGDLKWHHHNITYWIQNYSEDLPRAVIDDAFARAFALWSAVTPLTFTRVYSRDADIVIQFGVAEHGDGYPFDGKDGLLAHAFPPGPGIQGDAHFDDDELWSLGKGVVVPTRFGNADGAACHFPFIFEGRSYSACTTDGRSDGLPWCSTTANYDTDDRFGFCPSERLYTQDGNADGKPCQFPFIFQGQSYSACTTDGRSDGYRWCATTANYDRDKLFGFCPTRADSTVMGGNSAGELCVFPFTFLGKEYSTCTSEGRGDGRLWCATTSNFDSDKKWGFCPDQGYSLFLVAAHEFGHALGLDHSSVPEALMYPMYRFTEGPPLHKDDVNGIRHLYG
Method: as §2, §3

MMP-13 = biological target: T3, MMP-13 (Homo sapiens, UniProt P45452); assay: SensoLyte 520 fluorimetric selectivity assay, MMP-13; assay type: biochemical; conditions: agents tested at 25 nM or at 4 nM
T3 construct: purchased AnaSpec AS-72257
Method: as §2, §3

MMP-3 = biological target: T4, MMP-3 (Homo sapiens, UniProt P08254); assay: SensoLyte 520 fluorimetric selectivity assay, MMP-3; assay type: biochemical; conditions: agents tested at 25 nM or at 4 nM
T4 construct: purchased AnaSpec 72006
T4 sequence (P08254 100-272 limits assumed): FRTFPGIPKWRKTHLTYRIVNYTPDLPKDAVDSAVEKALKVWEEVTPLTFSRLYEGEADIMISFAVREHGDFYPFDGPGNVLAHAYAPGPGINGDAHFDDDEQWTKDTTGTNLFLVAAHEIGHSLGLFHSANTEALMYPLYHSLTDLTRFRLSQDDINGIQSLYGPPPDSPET
Method: as §2, §3

[2] = Solubility in dosing formulation; assay type: physicochemical; conditions: 10% DMSO, 40% PEG400, 10% (2-hydroxypropyl)-Beta-cyclodextrin in PBS
Method: as §1

MMP-1 = biological target: T5, MMP-1 (Homo sapiens, UniProt P03956); assay: SensoLyte 520 fluorimetric selectivity assay, MMP-1; assay type: biochemical; conditions: agents tested at 25 nM or at 4 nM
T5 construct: purchased AnaSpec AS-55575-1
T5 sequence (P03956 100-269 limits assumed): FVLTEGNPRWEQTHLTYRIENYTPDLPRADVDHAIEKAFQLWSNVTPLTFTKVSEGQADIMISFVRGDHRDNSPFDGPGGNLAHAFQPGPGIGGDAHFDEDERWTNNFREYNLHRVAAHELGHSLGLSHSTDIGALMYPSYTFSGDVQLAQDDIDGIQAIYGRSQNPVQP
Method: as §2, §3

[3] = test system: murine model of elastase-induced emphysema; assay: Murine model of elastase-induced emphysema, mean linear intercept analysis; assay type: in vivo, C57BL/6 mice; conditions: i.p. once daily for 7 days from day 2 after PPE, day 21
Method: C57BL/6 mice were purchased from Jackson Laboratories (Bar Harbor, Me.) and maintained in a pathogen-free vivarium at room temperature with 12-hour light/dark cycles. All mice were 6-8 weeks and both male and female mice were used for the experiment. All animal-use and euthanasia protocols were approved by the UC Riverside Institutional Animal Care and Use Committee (IACUC).
C57BL/6 mice were given a single intranasal instillation with 50 μl of saline or 0.9 U porcine pancreas elastase (Sigma-Aldrich, St. Louis, Mo.) diluted in phosphate buffered saline (IX PBS). Two days following the instillation, mice were treated with 200 μl of vehicle control, MMP-408, compound 25, or compound 26 via intraperitoneal injection. Mice were continually given treatment once a day for 7 consecutive days. Twenty-one days following the initial intranasal instillation, mice were sacrificed. Bronchoalveolar lavage fluid (BALF) was collected by making an incision in the trachea and inserting a cannula with syringe (BD Biosciences, CA), then washing with 1 mL of cold PBS three times. BALF was centrifuged at 1200 RPM for 5 minutes, then cell pellets were combined and resuspended in 200 μl of PBS to be used in cell counts and cell differential analysis. The lungs were isolated, slowly filled with 1 mL of 10% formalin then hung in formalin overnight for fixation. The following day, lungs were moved into 70% ethanol and stored at 4° C. until paraffin-embedding.
Mouse lungs were fixed in formalin and paraffin-embedded, then sectioned and stained in hematoxylin and eosin by the University of California Irvine Department of Pathology Experimental Tissue Resource Core Facility. The lungs were imaged on a Revolve light microscope (La Jolla, Calif.) at 10× magnification. MLI measurements were calculated using an established indirect method on ImageJ software. Briefly, alveolar walls/intersections were counted along a line of known length, then length was divided by the number of intersections to calculate MLI. This process was repeated for a total of five MLI measurements per image, with there being four images per mouse lung. The average MLI measurement for each lung was calculated and statistically analyzed using GraphPad Prism software (San Diego, Calif.).

hMMP-12 = biological target: T6, hMMP-12 (Homo sapiens, UniProt P39900); assay: SensoLyte 520 MMP-12 fluorimetric enzyme inhibition assay; assay type: biochemical; conditions: for IC50: catalytic domain, tested side by side
T6 construct: The catalytic domain (Gly106-Gly263) of human macrophage metalloelastase (hMMP-12); made in house; host or cells: E. coli BL21 Codon Plus (pET21 vector, NdeI/BamHI)
T6 sequence (P39900 106-263): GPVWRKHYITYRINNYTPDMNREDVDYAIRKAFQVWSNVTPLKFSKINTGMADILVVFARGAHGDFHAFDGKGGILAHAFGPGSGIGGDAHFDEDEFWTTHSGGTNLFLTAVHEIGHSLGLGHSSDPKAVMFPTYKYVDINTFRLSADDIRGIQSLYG

[4] = 30 mg/kg intraperitoneally, mice

SMILES | peak plasma drug concentration [1, 4] [ng/mL] | peak plasma drug concentration (molar) [1, 4] [nM] | peak plasma concentration relative to in vitro IC90 ([1]; mouse, in vivo) [times] | inhibition of MMP-14 (MMP-14) | inhibition of MMP-9 (MMP-9) | inhibition of MMP-13 (MMP-13) | inhibition of MMP-3 (MMP-3) | solubility in formulation [2] | inhibition of MMP-1 (MMP-1) | MLI measurements compared to saline (no PPE)-treated mice [3] | emphysema-like pathology compared to PPE+vehicle-treated mice [3] | mode of MMP-12 inhibition (hMMP-12) | IC50 (hMMP-12) [nM]
COc1ccc(CC[C@@H](NC(=O)[C@H](CCCc2ccccc2)NC(=O)CN2CCOCC2)C(=O)N[C@H](Cc2ccc(C)cc2)C(=O)NO)cc1 [Compound 25] | ~400 | ~580 | > 20 | did not display significant inhibition | did not display significant inhibition | did not display significant inhibition | appreciable inhibition | soluble | did not display significant inhibition | no significant differences | significant decrease | competitive inhibitors | ~4
COc1ccc(CCC[C@H](NC(=O)CN2CCOCC2)C(=O)N[C@H](CCc2ccc(OC)cc2)C(=O)N[C@H](Cc2ccc(C)cc2)C(=O)NO)cc1 [Compound 26] |  |  |  | did not display significant inhibition | did not display significant inhibition | did not display significant inhibition | appreciable inhibition |  | did not display significant inhibition | no significant differences | significant decrease | competitive inhibitors | ~4
CNC(=O)[C@H](Cc1c[nH]c2ccccc12)NC(=O)[C@@H](CC(=O)NO)CC(C)C [GM6001, reference compound] |  |  |  |  |  |  | appreciable inhibition |  |  |  |  |  | ~2.5
COC(=O)Nc1ccc2oc3cc(S(=O)(=O)N[C@H](C(=O)O)C(C)C)ccc3c2c1 [MMP408, reference compound] |  |  |  |  |  |  |  |  |  | no significant differences | significant decrease |  | 
